Results from a melting point compilation (Tetko et al.).

Compared with `Cc1cc(C(=O)O)c(C)n1Cc1ccccc1`, `CCc1ccccc1-n1cc(O)c(C(=O)O)n1` is lower in melting point: 196 to 200 °C for the first, 101 to 103 °C for the second.

Compared with `O=C(O)CCc1nc2ccccc2[nH]1`, `NNc1nc2ccccc2[nH]1` is lower in melting point: 229 to 231 °C for the first, 80 to 82 °C for the second.

First: Cc1nn(CC(C)C)c(C)c1CCC(=O)O
Second: Cc1c(C(=O)O)cnn1C(C)C
The melting point of the first is lower: 80 to 90 °C for the first, 142 to 144 °C for the second.

First: Nc1nc(-c2cccc([N+](=O)[O-])c2)cs1
Second: CCc1cc(Cl)nc(-c2ccc([N+](=O)[O-])cc2)n1
The melting point of the first is higher: 186 to 188 °C for the first, 103 to 105 °C for the second.

First: Cc1ccc(OCCCC(=O)O)cc1
Second: CS(=O)(=O)c1ccc(OCCCl)cc1
The melting point of the first is lower: 83 to 85 °C for the first, 85 to 87 °C for the second.

First: Clc1nnc(-c2ccccc2)n1C1CC1
Second: O=C(O)CCc1nnnn1-c1ccccc1
The melting point of the first is higher: 159 to 161 °C for the first, 119 to 121 °C for the second.

First: CC1Nc2cc(=O)[nH]n2C(C)C1CC(=O)O (centres undefined)
Second: Cc1ccc(CC(=O)O)cn1
The melting point of the first is higher: 235 to 237 °C for the first, 159 to 161 °C for the second.

Compared with `CCC(c1ccc(Br)cc1)N1CCNCC1` (centres undefined), `O=S(=O)(c1ccc(Cl)c(Cl)c1)N1CCNCC1` is higher in melting point: 65 to 67 °C for the first, 125 to 127 °C for the second.

First: O=[N+]([O-])c1cnc2c(c1)CCCC2
Second: COC(=O)c1cc([N+](=O)[O-])c[nH]c1=O
The melting point of the first is lower: 71 to 73 °C for the first, 254 to 256 °C for the second.

First: Nc1c([N+](=O)[O-])c(=O)oc2ccccc12
Second: Cn1c(=O)oc2cc(N)ccc21
The melting point of the first is higher: 259 to 261 °C for the first, 150 to 152 °C for the second.

First: Oc1ccccc1SC(F)(F)F
Second: O=C(O)CCSc1ccccc1Cl
The melting point of the first is lower: 32 to 34 °C for the first, 92 to 102 °C for the second.

First: Cc1nnnn1-c1ccc(F)c(NC(=O)CCl)c1
Second: Cc1noc(NC(=O)CCl)n1
The melting point of the first is higher: 179 to 181 °C for the first, 161 to 163 °C for the second.

Compared with `O=C(CCCl)N1CCOCC1`, `Cn1cc(S(=O)(=O)N2CCOCC2)cc1C(=O)NC(=O)CCl` is higher in melting point: 46 to 48 °C for the first, 229 to 231 °C for the second.

Compared with `O=C(CCl)NCCOc1ccccc1`, `NC(=O)CNCc1ccc(OCc2ccccc2)cc1` is higher in melting point: 67 to 69 °C for the first, 140 to 142 °C for the second.

First: O=C(O)CCN1CCCC1=O
Second: O=C(O)CCn1cccc1
The melting point of the first is higher: 109 to 111 °C for the first, 62 to 64 °C for the second.

Compared with `O=C(Nc1ccc(S(=O)(=O)Cl)cc1)c1ccc(F)cc1`, `O=C(O)c1cc(S(=O)(=O)Nc2ccc(Br)cc2)ccc1Cl` is higher in melting point: 149 to 151 °C for the first, 217 to 219 °C for the second.

Compared with `O=C(O)CC=Cc1ccccc1F`, `O=C(O)CCn1ccc2ccccc21` is lower in melting point: 54 to 56 °C for the first, 49 to 51 °C for the second.

Compared with `COc1cc(CN)ccc1OCCO`, `COc1cc(CCC(=O)O)ccc1Cl` is higher in melting point: 113 to 115 °C for the first, 132 to 134 °C for the second.

First: COC(=O)Nc1ccc(N)cc1F
Second: COC(=O)c1ccc(Br)cc1F
The melting point of the first is higher: 72 to 74 °C for the first, 59 to 61 °C for the second.

Compared with `CC(=O)Nc1ccc(C2NC(=O)NC2=O)cc1` (centres undefined), `CN(CC(=O)Nc1ccc(F)cc1)C(=O)CCl` is lower in melting point: 314 to 316 °C for the first, 159 to 161 °C for the second.

First: Nc1cccc(C(=O)CCC(=O)O)c1
Second: CNC(=O)c1cccc(C(=O)O)c1
The melting point of the first is lower: 126 to 128 °C for the first, 232 to 234 °C for the second.

First: Cc1ccc2ncc(C(=O)O)n2c1
Second: CN(C)c1ccc(-c2cncc(C(=O)O)c2)cc1
The melting point of the first is lower: 177 to 179 °C for the first, 284 to 286 °C for the second.

First: O=C(O)C1(O)Cc2ccccc2C1
Second: Oc1ccccc1C1=NCCN1
The melting point of the first is lower: 176 to 178 °C for the first, 199 to 201 °C for the second.

Compared with `COc1cc(C)c(C=O)cc1OC`, `COc1cc(C(=O)O)cc(CC(C)Cl)c1OC` (centres undefined) is higher in melting point: 70 to 72 °C for the first, 103 to 105 °C for the second.

First: Cc1n[nH]c(C(=O)O)c1C
Second: CC(=O)c1c(C)nsc1N
The melting point of the first is higher: 288 to 290 °C for the first, 183 to 185 °C for the second.

Compared with `Nc1cc(Cl)ccc1NCc1ccccc1`, `CCN(Cc1ccccc1)c1ccc(C=O)cc1` is lower in melting point: 77 to 81 °C for the first, 38 to 42 °C for the second.

Compared with `O=Cc1cc[nH]c1`, `Cn1c(Cl)c(C=O)c2cc(C=O)ccc21` is higher in melting point: 59 to 61 °C for the first, 164 to 166 °C for the second.

First: CCOc1ccc2c(c1)NC(=O)C2=O
Second: CCOc1ccc(-n2c(C)cc(C(=O)CCl)c2C)cc1
The melting point of the first is higher: 226 to 228 °C for the first, 118 to 122 °C for the second.

Compared with `NC(=O)c1ccc(NC(=O)OCC(F)(F)F)cc1Cl`, `Cc1ccc(NC(=O)OCC(F)(F)F)cc1` is lower in melting point: 178 to 180 °C for the first, 89 to 93 °C for the second.

Compared with `Cn1cc(S(N)(=O)=O)c(N)n1`, `Cc1oc(C(=O)O)cc1S(N)(=O)=O` is higher in melting point: 162 to 164 °C for the first, 225 to 227 °C for the second.

Compared with `CCCNC(=O)c1cccc(O)c1`, `O=C(O)CC(=O)c1ccc(O)cc1` is higher in melting point: 68 to 70 °C for the first, 89 to 91 °C for the second.

First: CC(C)(C)OC(=O)N[C@@H]1CCCC[C@H]1N (relative stereo)
Second: O=C(O)CNC(=O)NC1CCCCC1
The melting point of the first is lower: 76 to 78 °C for the first, 162 to 164 °C for the second.

First: NNc1cccc(C(F)(F)F)n1
Second: CC(O)c1nc2cc(C(F)(F)F)ccc2n1C (centres undefined)
The melting point of the first is lower: 62 to 64 °C for the first, 99 to 101 °C for the second.

First: OCc1cc(Br)cs1
Second: CC(=O)NCc1ccc(S(=O)(=O)NCC(=O)O)s1
The melting point of the first is lower: 30 to 32 °C for the first, 192 to 194 °C for the second.

First: O=C1C=CC(=O)N1c1cnccn1
Second: CC(N)C(=O)Nc1ccc(-n2cncn2)cc1 (centres undefined)
The melting point of the first is lower: 116 to 118 °C for the first, 169 to 171 °C for the second.

First: COC(=O)Cc1nnc(N)[nH]1
Second: COc1ccccc1NC(=O)CC(N)=S
The melting point of the first is higher: 159 to 161 °C for the first, 146 to 148 °C for the second.

First: N#Cc1ccc(=O)[nH]c1
Second: CN(C(=O)CC#N)c1ccccc1
The melting point of the first is higher: 253 to 255 °C for the first, 86 to 88 °C for the second.

First: CN(C)S(=O)(=O)c1ccc(Cl)c(N)c1
Second: CN(C)c1ccnc(Cl)n1
The melting point of the first is higher: 119 to 121 °C for the first, 79 to 81 °C for the second.

First: O=[N+]([O-])c1ccccc1CSc1ccc(C(F)(F)F)cn1
Second: CC(O)(c1ccc([N+](=O)[O-])cc1)C(F)(F)F (centres undefined)
The melting point of the first is lower: 64 to 66 °C for the first, 86 to 88 °C for the second.

Compared with `O=C(O)CCc1nc(-c2ccc(F)cc2)no1`, `CC(C)(C)c1noc(-c2ccccc2C(=O)O)n1` is lower in melting point: 150 to 152 °C for the first, 100 to 102 °C for the second.

Compared with `O=C(O)CCS(=O)(=O)C(F)(F)F`, `OC[C@@H](O)CNCCC(F)(F)F` is lower in melting point: 104 to 106 °C for the first, 34 to 36 °C for the second.

Compared with `Cc1cc(C(=O)O)c(Cl)cc1F`, `Cc1cc(N)n(C)c(=O)c1` is higher in melting point: 149 to 151 °C for the first, 192 to 194 °C for the second.

First: COC(=O)c1n[nH]c(=O)c2noc(C3CC3)c12
Second: COC(=O)c1sc2nc(CCl)nc(Cl)c2c1C
The melting point of the first is higher: 234 to 236 °C for the first, 125 to 127 °C for the second.

First: Nc1ncc(Cl)s1
Second: CC(N)(C(N)=O)c1cccc(Cl)c1 (centres undefined)
The melting point of the first is lower: 90 to 92 °C for the first, 103 to 105 °C for the second.

First: CC1(C)CCC(=CC(=O)O)CC1
Second: CCOC(=O)N1CCCC(C(=O)O)C1 (centres undefined)
The melting point of the first is higher: 88 to 90 °C for the first, 68 to 70 °C for the second.

Compared with `CNC(=O)CNC(=S)NN`, `O=C(O)CNc1ccc(C(=O)O)cc1` is higher in melting point: 156 to 158 °C for the first, 266 to 268 °C for the second.

First: CCc1ccc(-c2csc(NC(=O)C(C)Cl)n2)cc1 (centres undefined)
Second: CC(C)Cc1ccc(C2(C)NC(=O)NC2=O)cc1 (centres undefined)
The melting point of the first is lower: 108 to 110 °C for the first, 178 to 180 °C for the second.

Compared with `O=C(CCl)N1CCCC1c1ccc2c(c1)OCCO2` (centres undefined), `Nc1onc(C2CCC2)c1-c1ccc2c(c1)OCO2` is lower in melting point: 168 to 169 °C for the first, 96 to 98 °C for the second.

First: NC1(c2nnn[nH]2)CCC1
Second: O=c1[nH]nc(Br)c(=O)[nH]1
The melting point of the first is higher: 254 to 256 °C for the first, 188 to 190 °C for the second.

Compared with `CCCCCCCCCCCCSc1nc2sc3c(c2c(=O)n1-c1ccccc1)CCCC3`, `O=C(O)CCCCCCNC(=O)OCc1ccccc1` is higher in melting point: 84 to 86 °C for the first, 89 to 91 °C for the second.

First: COc1cc(C=NO)ccc1OC(F)F
Second: COC(C)C(N)=NO (centres undefined)
The melting point of the first is lower: 57 to 59 °C for the first, 118 to 120 °C for the second.

First: N#Cc1cccc(NC(=O)CSc2ccccc2C(=O)O)c1
Second: O=C(Nc1ccccc1F)Nc1cccc2c1CCCN2
The melting point of the first is lower: 118 to 120 °C for the first, 204 to 206 °C for the second.
